Reference: patent publication US11339193B2, “CDP protein secretion inhibitors” (KEZAR LIFE SCIENCES, priority 2018, dated 2022)
Peptide text beside a SMILES is read from it.

Tests used:
Type in all cases: cell-based
[1] = test system: VCAMss+10aa/Gaussia Luciferase; assay: VCAM-ss-Gluc assay (constitutively active or Dox induced); conditions: Flp-In 293 T-REx cells, 24 hours
In short: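 Stable cell lines secreting a VCAM signal sequence+10aa/Gaussia luciferase fusion, expressed either constitutively or under T-REx doxycycline control. Cells plated the day before; compound dilutions in DMSO/media (with doxycycline for the induced line) added and incubated at 37° C, 5% CO2.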

HER3ss-Gluc = assay: HER3ss assay; conditions: HEK-293T T-rex cells, transient transfection, doxycycline, 24 h; read-out: HER3 ss IC50
In short: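 HEK-293T T-REx cells were transiently transfected with HER3 signal sequence (plus four mature-domain residues) fused upstream of mature Gaussia luciferase. Cells were induced with doxycycline (1 μg/ml) and exposed to increasing compound concentrations for 24 h, then secreted luciferase in the conditioned medium was read by luminescence.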

[2] = test system: Prl-ss+10aa/Gaussia Luciferase; assay: Prl-ss-Gluc assay (constitutively active or 24 hr Dox inducible); conditions: Flp-In 293 T-REx cells, 24 hours; read-out: Prl IC50
In short: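 Stable Flp-In 293 T-REx lines express Prl signal sequence+10aa fused to Gaussia luciferase, either constitutively (pcDNA5/FRT) or under the T-REx promoter (pcDNA5/FRT/TO). Cells plated the day before; compounds in DMSO/media (with doxycycline for the inducible line, 24 h) incubated at 37 °C, 5% CO2.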

[3] = test system: U266B1 multiple myeloma cell line; assay: U266 assay (cell viability, Celltiter-Glo); conditions: Homo sapiens, U-266; 48 hours, cell viability
Method: Cells were plated in 384-well tissue culture plates and treated with compound dilutions in DMSO/media. Plates were incubated at 37° C., 5% CO2 for 48 hours. After 48 hours, Celltiter-Glo@ (Promega) was added to each well and luciferase signal was quantified using Tecan Infinite M1000 Pro for cell viability determination.

C#CC[C@H]1OC(=O)[C@H](C)N(C)C(C)[C@H](C[C@H](C)CCCC)NC(=O)[C@H](Cc2ccccc2)N(C)C(=O)[C@H](CC(C)C)NC(=O)[C@H](CC(C)C)N(C)C(=O)[C@H](C[C@H](C)CCCC)NC1=O (some centres unmarked) [C-01]
IC50 [1]: 15 nM | IC50 (HER3ss-Gluc): 40 nM | IC50 [2]: 11600 nM | EC50 [3]: 23500 nM

CC(C)C[C@@H]1NC(=O)[C@H](Cc2cn(Cc3ccccc3)c3ccccc23)N(C)C(=O)[C@H](CC(C)C)NC(=O)[C@H](CC(C)C)N(C)C(=O)[C@H](CC(C)C)NC(=O)[C@@H](CCC#N)OC(=O)[C@H](C)N(C)C1=O [C-16] (HELM PEPTIDE1{L.[meA].[N#CCC[C@@H](O[*:1])C(=O)[*:2]].L.[meL].L.[CN([C@@H](Cc1cn(Cc2ccccc2)c2ccccc12)C(=O)[*:2])[*:1]]}$PEPTIDE1,PEPTIDE1,1:R1-7:R2$$$V2.0)
IC50 [1]: 82 nM | IC50 (HER3ss-Gluc): 38 nM | IC50 [2]: 1820 nM | EC50 [3]: 13400 nM
